Experiments:
Supt1 cells = test: Viability of Supt1 cells with different AZT concentrations, with or without HBO (MTT-test); assay type: cell-based, human
From the text: 4.) Monitoring the viability by means of direct cell calculation in a Goryaev counting chamber after colouring with the excepting vital stain 0.2% trypan blue. For the direct comparison of the amounts of living cells there is used the so-called MTT-method, which is based on the capability of living cells to reduce the yellow water-soluble tetrazole salt MTT (3-(4,5)-dimethylthiazol-2-ye)-2,5-diphenyl-bromide tetrazole) into insoluble intracellular MTT-formazan crystals, whereas dead cells are not capable to do this.
A concentrated MTT solution of 10 mg/ml is prepared with a phosphate buffer solution at pH 7.4 and brought into a hollow with the cells at a 10-fold dilution rate.
After incubation over 4 hours at 37° C. the supernatant is isolated with help of microdosing tips of a special design (S-tips).
Into the hollow is added […] of DMSO as solvent. The thereupon measurable optical density is within 540 to 590 nm, i.e. in the absorption range of formazan, is direct proportional to the quantity of living cells.
(§1) 18 million Supt1 cells in 60 ml of the growth medium RPMI-1640 with 10% fetal calf serum, 2 mM L-glutamine and […] genthamycin were placed in each of 2 plastic flasks (75 cm^3), mark Costar®, USA, one of which was subjected to HBO (Ox+), and the other was used for counterchecks with intact and infected cells without a HBO exposure (Ox−).
(§2) The HBO [6] was carried out in the oxygenous pressure chamber BLKS-303M. The pressure chamber was sealed, blown out with oxygen over 7 min till an oxygen concentration of 98-100% was obtained at the outlet of the pressure chamber, whereupon the oxygen pressure in said pressure chamber was increased up to 1.5 ate. The compression rate was 1,077 ate/min and the time period of isocompression was 40 min. After having finished the HBO process, the oxygen pressure was decreased to atmospheric during 6 min.
(§3) Over 40 min after a finish of the HBO—procedure in the each well of the 24-wells plate (Nuclon®, Denmark) added 45 μL of a cell suspension (3×10^5 cell/mL) and 50 μL of a growth substance with a different concentrations of AZT.
(§4) After an incubation over two hours with the virus-containing inoculum at 37° C., the cells were there-fold washed off from residual virus by centrifugation with 300 g over 10 min in the 30-fold volume of the medium and in every well of 24-wells plate were added […] of the growth medium with corresponding AZT-concentration.
The mixed samples were cultivated in a thermostat at 37° C., 5% CO2 and 80% moisture content. […]
The monitoring results of viability of oxygenated and not-oxygenated cells Supt1, inoculated HIV-1BRU with different AZT-concentrations, are shown in Table 1.

HIV-1A216 = test: Viral antigen content (polyclonal EIA) in supernatant of Supt1 culture infected with AZT-resistant HIV-1A216, with or without HBO; assay type: cell-based, Human Immunodeficiency Virus; conditions: Supt1/HIV-1A216
Protocol: 1.) Determination of the total level of viral antigen expression by means of the method of polyclonal immunoenzyme analysis (EIA) [ABBOTT™ ELISA Kit].
The values of 50 per cent effective AZT dose (ED50) were calculated conformably to oxidised and non-oxidised cells subsequently infected by HIV and treated by AZT in various concentrations.
ED50 values were derived according to the linear regression resulting averaged values of the optical density signal V(%) depending on the logarithm of AZT doses (10^−6; 10^−7; . . . 10^−12 M).[8]
Regression lines are determined with the following formula: […]
where <> and <> are regression coefficients, calculated by mean square root method.
as §1, §2, §3
(§5) After an incubation over 2 hours at 37° C. an oxygenated and non-oxygenated samples were infected with HIV-1BRU (non-resistant to AZT) and HIV-1A216 (resistant to AZT),
(§6) After having centrifuged 24-wells plate at 300 g over 10 min, supernatant was taken out the wells by S-tips (besides […] of a cell's sediment), to which was added […] of the virus-containing supernatant of 480 TCID50.
as §4
(§7) The mixed samples were cultivated in a thermostat at 37° C., 5% CO2 and 80% moisture content.
The experimental procedure was identically with that described in Example 1, except that there were monitored HIV-1A216 antigen expression by the method of polyclonal EIA.

HIV-1BRU = test: Viral antigen content (polyclonal EIA) in supernatant of Supt1 culture infected with HIV-1BRU, with or without HBO; assay type: cell-based, Human Immunodeficiency Virus; parameters: unit not given here; conditions: Supt1/HIV-1BRU
Protocol: 1.) Determination of the total level of viral antigen expression by means of the method of polyclonal immunoenzyme analysis (EIA) [ABBOTT™ ELISA Kit]. […]
as §1, §2, §3, §5, §6, §4, §7
The experimental procedure was identically with that described in Example 1, except that there were monitored HIV-BRU antigen expression by the method of polyclonal EIA.

[1] = AZT 10^−11 M, day 3 after infection, OX+
[2] = AZT 10^−11 M, day 3 after infection, OX−

With `Cc1cn([C@H]2C[C@H](N=[N+]=[N-])[C@@H](CO)O2)c(=O)[nH]c1=O` [AZT, 3-azido-2,3-didezoxythimidim] the “viability of the cell culture Supt1 (MTT-test)” value (from here on “viability”) (Supt1 cells; AZT 10^−3 M, day 2 after AZT addition, HBO+) was 52.3 per cents, the “viability” value (Supt1 cells; AZT 10^−3 M, day 2 after AZT addition, HBO−) was 45.3 per cents and the “viability” value (Supt1 cells; AZT 10^−3 M, day 3 after AZT addition, HBO+) was 55.6 per cents. For the same molecule, the “viability” value (Supt1 cells; AZT 10^−3 M, day 3 after AZT addition, HBO−) was 51.1 per cents, the “viability” value (Supt1 cells; AZT 10^−3 M, day 5 after AZT addition, HBO+) was 35.0 per cents and the “viability” value (Supt1 cells; AZT 10^−3 M, day 5 after AZT addition, HBO−) was 25.3 per cents. For the same molecule, the “viability” value (Supt1 cells; AZT 10^−4 M, day 2 after AZT addition, HBO+) was 65.2 per cents, the “viability” value (Supt1 cells; AZT 10^−4 M, day 2 after AZT addition, HBO−) was 63.1 per cents and the “viability” value (Supt1 cells; AZT 10^−4 M, day 3 after AZT addition, HBO+) was 73.6 per cents. For the same molecule, the “viability” value (Supt1 cells; AZT 10^−4 M, day 3 after AZT addition, HBO−) was 50.5 per cents, the “viability” value (Supt1 cells; AZT 10^−4 M, day 5 after AZT addition, HBO+) was 61.1 per cents and the “viability” value (Supt1 cells; AZT 10^−4 M, day 5 after AZT addition, HBO−) was 55.1 per cents. The “viability” value (Supt1 cells; AZT 10^−5 M, day 2 after AZT addition, HBO+) was 79.3 per cents, the “viability” value (Supt1 cells; AZT 10^−5 M, day 2 after AZT addition, HBO−) was 72.3 per cents and the “viability” value (Supt1 cells; AZT 10^−5 M, day 3 after AZT addition, HBO+) was 85.4 per cents. For the same molecule, the “viability” value (Supt1 cells; AZT 10^−5 M, day 3 after AZT addition, HBO−) was 70.0 per cents, the “viability” value (Supt1 cells; AZT 10^−5 M, day 5 after AZT addition, HBO+) was 80.5 per cents and the “viability” value (Supt1 cells; AZT 10^−5 M, day 5 after AZT addition, HBO−) was 71.9 per cents. The “viability” value (Supt1 cells; AZT 10^−6 M, day 2 after AZT addition, HBO+) was 89.3 per cents, the “viability” value (Supt1 cells; AZT 10^−6 M, day 2 after AZT addition, HBO−) was 52.7 per cents and the “viability” value (Supt1 cells; AZT 10^−6 M, day 3 after AZT addition, HBO+) was 96.0 per cents. The “viability” value (Supt1 cells; AZT 10^−6 M, day 3 after AZT addition, HBO−) was 80.2 per cents, the “viability” value (Supt1 cells; AZT 10^−6 M, day 5 after AZT addition, HBO+) was 87.8 per cents and the “viability” value (Supt1 cells; AZT 10^−6 M, day 5 after AZT addition, HBO−) was 73.0 per cents. The “viability” value (Supt1 cells; AZT 10^−7 M, day 2 after AZT addition, HBO+) was 93.0 per cents, the “viability” value (Supt1 cells; AZT 10^−7 M, day 2 after AZT addition, HBO−) was 53.8 per cents and the “viability” value (Supt1 cells; AZT 10^−7 M, day 3 after AZT addition, HBO+) was 95.2 per cents. For the same molecule, the “viability” value (Supt1 cells; AZT 10^−7 M, day 3 after AZT addition, HBO−) was 114.1 per cents, the “viability” value (Supt1 cells; AZT 10^−7 M, day 5 after AZT addition, HBO+) was 92.0 per cents and the “viability” value (Supt1 cells; AZT 10^−7 M, day 5 after AZT addition, HBO−) was 79.2 per cents. For the same molecule, the “viability” value (Supt1 cells; AZT 10^−8 M, day 2 after AZT addition, HBO+) was 107.8 per cents, the “viability” value (Supt1 cells; AZT 10^−8 M, day 2 after AZT addition, HBO−) was 100.6 per cents and the “viability” value (Supt1 cells; AZT 10^−8 M, day 3 after AZT addition, HBO+) was 100.9 per cents. For the same molecule, the “viability” value (Supt1 cells; AZT 10^−8 M, day 3 after AZT addition, HBO−) was 118.3 per cents, the “viability” value (Supt1 cells; AZT 10^−8 M, day 5 after AZT addition, HBO+) was 85.6 per cents and the “viability” value (Supt1 cells; AZT 10^−8 M, day 5 after AZT addition, HBO−) was 85.9 per cents. For the same molecule, the “viability” value (Supt1 cells; AZT 10^−9 M, day 2 after AZT addition, HBO+) was 98.3 per cents, the “viability” value (Supt1 cells; AZT 10^−9 M, day 2 after AZT addition, HBO−) was 95.2 per cents and the “viability” value (Supt1 cells; AZT 10^−9 M, day 3 after AZT addition, HBO+) was 102.1 per cents. For the same molecule, the “viability” value (Supt1 cells; AZT 10^−9 M, day 3 after AZT addition, HBO−) was 98.6 per cents, the “viability” value (Supt1 cells; AZT 10^−9 M, day 5 after AZT addition, HBO+) was 97.3 per cents and the “viability” value (Supt1 cells; AZT 10^−9 M, day 5 after AZT addition, HBO−) was 80.1 per cents. For the same molecule, the “Content of viral antigen in supernatant” value (HIV-1A216; AZT 10^−6 M, day 2 after infection, OX+) was 20.5, the “Content of viral antigen in supernatant” value (HIV-1A216; AZT 10^−6 M, day 2 after infection, OX−) was 21.8 and the “Content of viral antigen in supernatant” value (HIV-1A216; AZT 10^−6 M, day 3 after infection, OX+) was 33.3. For the same molecule, the “Content of viral antigen in supernatant” value (HIV-1A216; AZT 10^−6 M, day 3 after infection, OX−) was 51.1, the “Content of viral antigen in supernatant” value (HIV-1A216; AZT 10^−8 M, day 2 after infection, OX+) was 29.3 and the “Content of viral antigen in supernatant” value (HIV-1A216; AZT 10^−8 M, day 2 after infection, OX−) was 33.1. The “Content of viral antigen in supernatant” value (HIV-1A216; AZT 10^−8 M, day 3 after infection, OX+) was 51.8, the “Content of viral antigen in supernatant” value (HIV-1A216; AZT 10^−8 M, day 3 after infection, OX−) was 70.7 and the “Content of viral antigen in supernatant” value (HIV-1A216; AZT 10^−11 M, day 2 after infection, OX+) was 29.6. The “Content of viral antigen in supernatant” value (HIV-1A216; AZT 10^−11 M, day 2 after infection, OX−) was 48.2, the “Content of viral antigen in supernatant” value (HIV-1A216; [1]) was 44.5 and the “Content of viral antigen in supernatant” value (HIV-1A216; [2]) was 92.1. For the same molecule, the “Content of viral antigen in supernatant” value (HIV-1BRU; AZT 10^−7 M, day 3 after infection, OX+) was 8.8, the “Content of viral antigen in supernatant” value (HIV-1BRU; AZT 10^−7 M, day 3 after infection, OX−) was 8.0 and the “Content of viral antigen in supernatant” value (HIV-1BRU; AZT 10^−7 M, day 5 after infection, OX+) was 9.9. For the same molecule, the “Content of viral antigen in supernatant” value (HIV-1BRU; AZT 10^−7 M, day 5 after infection, OX−) was 50.2, the “Content of viral antigen in supernatant” value (HIV-1BRU; AZT 10^−9 M, day 3 after infection, OX+) was 7.4 and the “Content of viral antigen in supernatant” value (HIV-1BRU; AZT 10^−9 M, day 3 after infection, OX−) was 14.5. For the same molecule, the “Content of viral antigen in supernatant” value (HIV-1BRU; AZT 10^−9 M, day 5 after infection, OX+) was 21.5, the “Content of viral antigen in supernatant” value (HIV-1BRU; AZT 10^−9 M, day 5 after infection, OX−) was 82.3 and the “Content of viral antigen in supernatant” value (HIV-1BRU; [1]) was 8.7. The “Content of viral antigen in supernatant” value (HIV-1BRU; [2]) was 14.4, the “Content of viral antigen in supernatant” value (HIV-1BRU; AZT 10^−11 M, day 5 after infection, OX+) was 62.0 and the “Content of viral antigen in supernatant” value (HIV-1BRU; AZT 10^−11 M, day 5 after infection, OX−) was 83.4.

Reference: patent US20020019356A1, “HYPERBARIC OXIGENATION (HBO) AS THE METHOD FOR ENHANCEMENT EFFICIENCY OF ANTI-HIV SUBSTANCES IN INHIBITION THE HUMAN IMMUNODEFICIENCY VIRUS (HIV) REPRODUCTION AND REDUCTION OF THE CYTOTOXIC EFFECT OF THOSE SUBSTANCES AS WELL” (priority 1998, published 2002)
